Experimental data reported in article doi:10.1101/2025.09.29.679234, “Engineered antimicrobial-derived peptides to manipulate mixed microbial systems” (bioRxiv, 2025).
Marks after values point to notes of the source that are not given here.

How the values were obtained:
E. coli = assay: Cell-binding assay by flow cytometry; settings: Table S1
Method: (§1) The binding affinity and avidity of pediocin to various Gram-positive and Gram-negative bacteria were studied using flow cytometry. Late log-phase cells were washed in the sodium phosphate buffer (5 mM, pH 6.0) and resuspended at an OD600 of 10^–3 in sodium-acetate buffer (25 mM, pH 4.0), sodium phosphate buffer (5 mM, pH 6.0) or sodium phosphate buffer (5mM, pH 7.4) containing 1 % BSA (bovine serum albumin) and 100 mM NaCl. Cells were incubated with varying concentrations of the conjugated peptide at 4 °C for 30 min. The unbound peptide was removed by centrifugation, and the pellet was resuspended in their respective binding containing 1 % BSA. Flow cytometry was performed on an Attune NxT flow cytometer (Life Technologies/ThermoFisher Scientific, Carlsbad, CA). Data (≥10^4 events were recorded) was recorded using a […] (488 nm) voltage of 360 V, gating was performed on SSC-A versus SSC-H plot to reduce false events.

B. subtilis = assay: Cell-binding assay by flow cytometry; set-up: species or system Bacillus subtilis
Method: as §1

indicator strains = assay: Agar-well diffusion assay, specific activity of the purified peptide; format: cell-based; settings: agar-well diffusion method; peptide after cell adsorption-desorption and dialysis, purified 189-fold
Method: Pediocin PA-1 is known to display narrow-spectrum activity against only a few species that include Lactobacillus coryniformis B-4390 and various Listeria species. We re-tested the antimicrobial spectrum of the pediocin PA-1 producer strain, Pediococcus acidilactici UL5, using agar-well diffusion assays against a few representative members of lactic acid bacteria (LAB) and Gram-negative, E. coli DH5α as a control (Figure S1). The effectiveness of the spent cell-free culture medium was evaluated by its ability to inhibit growth of the indicator strains as measured by zone of inhibition (ZOI). […] Therefore, we conclude that the primary antimicrobial secreted by P. acidilactici UL5 was pediocin PA-1.
We then proceeded to clone the pediocin operon from P. acidilactici UL5 into pSIP-P27 vector for heterologous expression in other lactic acid bacteria viz. Lactiplantibacillus plantarum WCFS1, Lactococcus cremoris MG1363 and the well-established expression host, E. coli MG1655. The pediocin operon imparted anti-listerial activity to the L. plantarum culture supernatant but not to that of L. cremoris or E. coli (Figure 1A). […] The peptide using this method was purified 189-fold with specific activity of 9,434 AU·mg^−1 as measured by agar-well diffusion method (Figure 1B, Figure S2A–C). […]

L. coryniformis [1] = assay: Cell-binding assay by flow cytometry; set-up: species or system Lactobacillus coryniformis
Method: as §1

L. seeligeri = format: cell-based, Listeria seeligeri; settings: Figure 1C; start OD600 0.05, 96-well plate, growth at 600 nm after 24 h; 3 pM to 3 μM, 10-fold serial dilutions; read-out: EC50 (kill-curve)
Method: (§2) To determine the potency of the purified pediocin PA-1, we generated kill-curves against a range of target bacteria (Figure 1B). The concentration range tested was 3 pM to 3 μM following 10-fold serial dilutions. […] This is in approximate agreement with the published potency of pediocin PA-1 [28] . Though the molecular mass of pediocin PA-1 is expected to be 4.5 kDa, we observed the partially purified peptide to migrate with an apparent mass of ~12.5 kDa (Figure 1B). However, subsequent analysis by LC-MS yielded peaks of multiple m/z with the predominant peak at the expected molecular size of 4.6 kDa (Figure S4). The purified pediocin PA-1, separated on denaturing but non-reducing SDS-PAGE (since this bacteriocin contains two crucial disulfide bonds), was subjected to agar-overlay assay using L. seeligeri as indicator organism (Figure S5).
(§3) The antimicrobial spectrum of pediocin PA-1 was assayed using a kill curve. Cultures grown overnight were resuspended in fresh medium at an OD600 of 0.05. EC50 was determined by incubating cells with varying concentrations of pediocin in a 96-well plate, and growth was measured at 600 nm after 24 h.
Figure S7. Growth inhibition of L. seeligeri by modified and unmodified pediocin PA-1.

L. coryniformis [2] = assay: Kill curve (growth at 600 nm after 24 h); format: cell-based, Lactobacillus coryniformis; settings: Figure 1C, start OD600 0.05, 96-well plate, 3 pM to 3 μM, 10-fold serial dilutions
Method: as §2, §3

L. cremoris = assay: Cell-binding assay by flow cytometry; set-up: species or system Lactococcus cremoris; settings: Table S1, organism printed as L. lactis
Method: as §1

L. casei = assay: Cell-binding assay by flow cytometry; set-up: species or system Lacticaseibacillus casei; settings: Table S1
Method: as §1

[3] = format: physicochemical
Description: We then proceeded to clone the pediocin operon from P. acidilactici UL5 into pSIP-P27 vector for heterologous expression in other lactic acid bacteria viz. Lactiplantibacillus plantarum WCFS1, Lactococcus cremoris MG1363 and the well-established expression host, E. coli MG1655. The pediocin operon imparted anti-listerial activity to the L. plantarum culture supernatant but not to that of L. cremoris or E. coli (Figure 1A). Based on the degree of bioactivity, we concluded that the level of recombinant pediocin PA-1 accumulated in L. plantarum culture was […] that observed for P. acidilactici UL5 and was therefore not pursued further. Thus, for subsequent studies, we isolated pediocin PA-1 from P. acidilactici UL5 directly using the cell adsorption-desorption approach (Figure S2). […] We attempted to further purify the preparation using reverse phase HPLC with minimal enhancement in purity but a significant loss in yield (Figure S3). The peptide recovered after cell adsorption-desorption and dialysis was lyophilized for long-term storage to minimize any loss in activity. The peptide using this method was purified 189-fold with specific activity of 9,434 AU·mg^−1 as measured by agar-well diffusion method (Figure 1B, Figure S2A–C).

[4] = signal did not saturate, read-out: Apparent KD
[5] = Table S1, maximum mean fluorescence intensity
[6] = flow cytometry, Atto488 conjugate up to 2 μM, 4 °C 30 min, 1 % BSA, 100 mM NaCl, Hill fit, read-out: Apparent KD

Which Hill co-efficient (E. coli) does the source give for “biosynthetic pediocin PA-1: class IIa bacteriocin partially purified from P. acidilactici UL5 by cell adsorption-desorption (KYYGNGVTCGKHSCSVDWGKATTCIINNGAMAWATGGHQGNHKC; UniProt P29430 19-62, looked up)” here?
Its Hill co-efficient is 0.9.

And the Kd (E. coli; [4])?
Its Kd is greater than 2000 nM.

What about the Hill co-efficient (B. subtilis; Table S1, Hill fit) of the same substance?
Its Hill co-efficient is 0.9.

What about the “MFImax (×10^3)” value (B. subtilis; [5]) of the same substance?
Its value is 7 ± 1 ×10^3.

And the Kd (B. subtilis; [6])?
Its Kd is 467 ± 167 nM.

What about the specific activity (indicator strains) of the same substance?
The specific activity was 9,434 AU·mg^−1.

And the Hill co-efficient (L. coryniformis [1]; Table S1, fit MFI = MFImax[S]^n/(KD^n+[S]^n))?
The Hill co-efficient was 1.4.

What about the “MFImax (×10^3)” value (L. coryniformis [1]; [5]) of the same substance?
The value was 6.3 ± 0.3 ×10^3.

What about the Kd (L. coryniformis [1]; [6]) of the same substance?
Its Kd is 46 ± 8 nM.

And the EC50 (L. seeligeri)?
The EC50 was roughly 13.3 nM.

And the EC50 (L. coryniformis [2])?
The EC50 was roughly 1 nM.

And the Hill co-efficient (L. cremoris)?
The Hill co-efficient was 0.7.

What about the Kd (L. cremoris; [4]) of the same substance?
Its Kd is greater than 2000 nM.

What about the Hill co-efficient (L. casei) of the same substance?
The Hill co-efficient was 0.7.

And the “MFImax (×10^3)” value (L. casei; signal did not saturate)?
Its value is >2* ×10^3.

And the Kd (L. casei; [4])?
The Kd was greater than 2000 nM.

And the “stability of recovered peptide (in words)” value [3]?
Its value is “the peptide recovered at the acidic pH was found to be more stable”.
